Data set [1] deals with IL-13 induced STAT6 phosphorylation in BEAS-2B human lung epithelial cells. The data set can be described thus: Cellular JAKI potency assay (BEAS-2B). It is filed as cell-based. The settings on record: Homo sapiens, BEAS-2B, BEAS-2B cells, read-out: BEAS2B pIC50 (converted). The method, boiled down: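 AlphaLISA SureFire detection of Tyr641 pSTAT6 in lysates gave IC50s (4-parameter fit, expressed as pIC50). Cells: human BEAS-2B, exposed 1 h at 37 °C to compound dose series at 0.1% DMSO, then 30 min to IL-13 added at 80 ng/mL in HEPES-buffered HBSS with BSA.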

A short description of data set [2]: Pharmacokinetics in plasma and lung in mouse after oral aspiration administration. It counts as in vivo. To be noted: male CD1 mice; for Lung Tissue AUC(0-24) / AUC(0-t): 0.2 mg/mL, two 25 μL increments; for Lung Tissue:Plasma AUC ratio: lung AUC to plasma AUC; for AUC(0-t): mouse, inhaled or intranasal, 0.01 mg/mouse, plasma, read-out: Plasma AUC(0-24). An outline of the steps: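 Male CD1 mice given 0.2 mg/mL compound in 20% propylene glycol/pH 4 citrate buffer, two 25 μL increments by oral aspiration into the trachea under isoflurane. Plasma and lung homogenate sampled 0.167–24 hr and measured by LC-MS/MS. Non-compartmental analysis gave AUC(0-inf); lung-to-plasma ratio from lung (μg*hr/g) over plasma (μg*hr/mL) AUC.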

The target in data set [3] is JAK2 (Homo sapiens (Human), UniProt O60674). The data set can be described thus: Biochemical JAK kinase assay (LanthaScreen), JAK2. The settings on record: read-out: JAK2 pKi (converted). An outline of the steps:
(§1)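 LanthaScreen format: phospho-STAT1 (pTyr701) detected with 2 nM Tb antibody after 10 mM EDTA quench. Kinase step used Km-level ATP and 200 nM STAT1 peptide, 1 h at ambient after 1 h pre-incubation. Inhibition fitted to IC50, reported as pKi.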
On the technique in general: Time-resolved FRET reads energy transfer from a long-lived donor to a nearby acceptor.

Data set [4] deals with JAK1 (Homo sapiens (Human), UniProt P23458). The data set can be described thus: Biochemical JAK kinase assay (LanthaScreen), JAK1. The settings on record: read-out: JAK1 pKi (converted). The method, boiled down: as §1
Sequence of JAK1 (P23458 whole entry): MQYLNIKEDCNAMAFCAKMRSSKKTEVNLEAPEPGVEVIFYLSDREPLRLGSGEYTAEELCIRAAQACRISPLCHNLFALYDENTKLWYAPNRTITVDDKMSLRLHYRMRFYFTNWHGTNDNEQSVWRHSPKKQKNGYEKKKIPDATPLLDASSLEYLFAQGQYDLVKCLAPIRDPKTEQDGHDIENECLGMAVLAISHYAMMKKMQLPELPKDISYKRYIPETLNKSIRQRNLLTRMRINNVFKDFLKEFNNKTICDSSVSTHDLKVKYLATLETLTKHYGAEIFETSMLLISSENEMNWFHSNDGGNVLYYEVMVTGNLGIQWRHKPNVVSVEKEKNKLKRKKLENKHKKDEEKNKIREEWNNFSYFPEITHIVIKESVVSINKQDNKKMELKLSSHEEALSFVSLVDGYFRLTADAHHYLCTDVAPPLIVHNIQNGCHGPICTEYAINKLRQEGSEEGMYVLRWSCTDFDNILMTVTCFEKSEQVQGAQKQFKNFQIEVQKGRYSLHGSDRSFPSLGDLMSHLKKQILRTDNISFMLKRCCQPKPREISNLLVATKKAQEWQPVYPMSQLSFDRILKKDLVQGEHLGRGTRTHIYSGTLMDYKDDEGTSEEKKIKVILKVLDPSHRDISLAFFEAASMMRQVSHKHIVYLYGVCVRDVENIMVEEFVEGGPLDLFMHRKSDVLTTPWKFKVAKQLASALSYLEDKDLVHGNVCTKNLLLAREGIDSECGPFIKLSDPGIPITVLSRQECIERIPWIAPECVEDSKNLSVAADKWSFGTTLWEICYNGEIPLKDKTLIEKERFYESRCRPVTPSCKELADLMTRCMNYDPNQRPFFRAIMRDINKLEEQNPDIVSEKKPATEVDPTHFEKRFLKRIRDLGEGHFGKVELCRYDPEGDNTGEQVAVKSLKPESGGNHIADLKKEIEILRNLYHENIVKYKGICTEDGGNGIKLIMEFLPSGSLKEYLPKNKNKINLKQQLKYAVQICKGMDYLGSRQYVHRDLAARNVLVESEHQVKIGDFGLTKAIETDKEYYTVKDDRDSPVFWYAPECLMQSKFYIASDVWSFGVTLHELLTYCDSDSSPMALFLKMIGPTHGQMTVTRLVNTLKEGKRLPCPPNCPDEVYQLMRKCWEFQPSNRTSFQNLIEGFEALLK
Data set [5] concerns the target JAK3 (Homo sapiens (Human), UniProt P52333). Briefly: Biochemical JAK kinase assay (LanthaScreen), JAK3. To be noted: read-out: JAK3 pKi (converted). The method, boiled down: as §1

Sequence of JAK2 (O60674 whole entry): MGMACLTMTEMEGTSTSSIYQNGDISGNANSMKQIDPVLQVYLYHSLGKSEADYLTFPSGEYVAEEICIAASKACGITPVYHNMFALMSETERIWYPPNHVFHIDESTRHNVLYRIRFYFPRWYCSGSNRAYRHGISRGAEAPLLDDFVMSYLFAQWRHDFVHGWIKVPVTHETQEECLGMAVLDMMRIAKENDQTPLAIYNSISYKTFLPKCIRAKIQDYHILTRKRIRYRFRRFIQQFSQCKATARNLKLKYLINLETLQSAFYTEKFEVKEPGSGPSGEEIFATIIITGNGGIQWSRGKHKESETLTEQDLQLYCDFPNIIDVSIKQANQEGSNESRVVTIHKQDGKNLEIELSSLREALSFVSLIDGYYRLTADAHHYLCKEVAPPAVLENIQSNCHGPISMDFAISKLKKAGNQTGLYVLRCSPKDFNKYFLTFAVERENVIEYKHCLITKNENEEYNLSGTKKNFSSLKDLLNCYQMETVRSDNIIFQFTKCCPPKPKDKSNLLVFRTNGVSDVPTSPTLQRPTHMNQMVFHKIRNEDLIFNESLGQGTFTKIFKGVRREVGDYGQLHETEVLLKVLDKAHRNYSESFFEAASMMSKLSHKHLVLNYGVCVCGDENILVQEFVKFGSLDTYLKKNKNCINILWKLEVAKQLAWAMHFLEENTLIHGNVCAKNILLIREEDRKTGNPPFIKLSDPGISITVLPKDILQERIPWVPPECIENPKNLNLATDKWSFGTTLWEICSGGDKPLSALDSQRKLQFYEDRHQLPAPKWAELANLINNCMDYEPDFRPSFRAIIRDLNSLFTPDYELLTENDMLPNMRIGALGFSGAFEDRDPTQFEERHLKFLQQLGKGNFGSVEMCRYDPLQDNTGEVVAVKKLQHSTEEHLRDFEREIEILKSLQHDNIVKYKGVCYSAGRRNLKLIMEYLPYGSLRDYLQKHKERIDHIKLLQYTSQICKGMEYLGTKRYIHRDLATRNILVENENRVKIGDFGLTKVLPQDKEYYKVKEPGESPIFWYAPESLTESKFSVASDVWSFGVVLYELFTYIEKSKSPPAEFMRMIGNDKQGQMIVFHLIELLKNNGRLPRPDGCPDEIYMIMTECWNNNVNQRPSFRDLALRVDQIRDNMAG
Sequence of JAK3 (P52333 whole entry): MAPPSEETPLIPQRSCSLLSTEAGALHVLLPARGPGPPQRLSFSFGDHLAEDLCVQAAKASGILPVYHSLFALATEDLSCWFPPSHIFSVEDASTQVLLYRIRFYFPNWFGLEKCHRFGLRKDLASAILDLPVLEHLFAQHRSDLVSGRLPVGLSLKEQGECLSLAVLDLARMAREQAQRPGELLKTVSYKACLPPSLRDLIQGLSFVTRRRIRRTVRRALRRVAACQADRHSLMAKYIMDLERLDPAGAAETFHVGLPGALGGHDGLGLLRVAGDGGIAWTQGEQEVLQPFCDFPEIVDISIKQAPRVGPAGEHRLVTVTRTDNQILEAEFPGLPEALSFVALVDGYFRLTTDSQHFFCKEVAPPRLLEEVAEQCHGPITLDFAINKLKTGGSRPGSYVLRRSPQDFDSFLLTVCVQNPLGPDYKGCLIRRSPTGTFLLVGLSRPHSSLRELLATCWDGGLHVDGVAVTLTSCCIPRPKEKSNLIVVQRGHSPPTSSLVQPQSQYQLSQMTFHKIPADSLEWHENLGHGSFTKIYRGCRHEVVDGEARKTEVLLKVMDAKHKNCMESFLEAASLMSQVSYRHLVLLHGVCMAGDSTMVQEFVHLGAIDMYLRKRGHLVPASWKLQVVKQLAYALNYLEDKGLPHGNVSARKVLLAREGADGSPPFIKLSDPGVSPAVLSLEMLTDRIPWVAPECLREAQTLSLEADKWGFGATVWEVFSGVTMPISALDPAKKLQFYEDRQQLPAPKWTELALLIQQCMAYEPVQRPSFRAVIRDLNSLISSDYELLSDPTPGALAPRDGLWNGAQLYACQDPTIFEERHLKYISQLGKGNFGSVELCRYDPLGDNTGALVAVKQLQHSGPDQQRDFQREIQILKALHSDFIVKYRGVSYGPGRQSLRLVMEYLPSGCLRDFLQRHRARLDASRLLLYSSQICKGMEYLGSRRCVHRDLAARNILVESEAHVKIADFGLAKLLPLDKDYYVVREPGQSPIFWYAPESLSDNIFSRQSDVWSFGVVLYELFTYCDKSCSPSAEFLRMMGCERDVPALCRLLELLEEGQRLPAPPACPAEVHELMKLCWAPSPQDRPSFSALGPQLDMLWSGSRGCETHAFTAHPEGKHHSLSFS

As to `CCc1cc(O)ccc1-c1ccc2c(-c3nc(C4=CCNCC4)c[nH]3)n[nH]c2c1F` [Compound 2, 3-ethyl-4-(7-fluoro-3-(4-(1,2,3,6-tetrahydropyridin-4-yl)-1H-imidazol-2-yl)-1H-indazol-6-yl)phenol], the IC50 in data set [1] is 3.16 to 10 nM. For the same molecule, the “Lung Tissue AUC(0-24)” value in data set [2] is “B (B denotes a value between 50 and 100)”. The “Lung Tissue:Plasma AUC ratio” value in data set [2] is “C (C denotes a ratio between 100 and 200)”. Besides, the AUC(0-t) in data set [2] lay within 500 to 1000 ng·h/mL. Also, the Ki in data set [3] was 0.1 to 1 nM; in data set [4], 0.1 to 1 nM; in data set [5] it was 1 to 10 nM.

In the case of `CCc1cc(O)ccc1-c1ccc2c(-c3nc(C4=CCNC4)c[nH]3)n[nH]c2c1F` [Compound 1, 4-(3-(4-(2,5-dihydro-1H-pyrrol-3-yl)-1H-imidazol-2-yl)-7-fluoro-1H-indazol-6-yl)-3-ethylphenol], the IC50 in data set [1] was 3.16 to 10 nM. Further, in data set [2], the “Lung Tissue AUC(0-24)” value is “B (B denotes a value between 50 and 100)”; the “Lung Tissue:Plasma AUC ratio” value is “C (C denotes a ratio between 100 and 200)”; the AUC(0-t) was 500 to 1000 ng·h/mL. Moreover, the Ki in data set [3] was 0.1 to 1 nM. The Ki in data set [4] was 0.1 to 1 nM. Further, the Ki in data set [5] was 0.1 to 1 nM.

In the case of `CCc1cc(O)ccc1-c1ccc2c(-c3nc(C4=CCNCC4)c[nH]3)n[nH]c2c1` [Compound 3, 3-ethyl-4-(3-(4-(1,2,3,6-tetrahydropyridin-4-yl)-1H-imidazol-2-yl)-1H-indazol-6-yl)phenol], the IC50 in data set [1] is 3.16 to 10 nM. In data set [2], the “Lung Tissue AUC(0-24)” value was “A (For the Lung Tissue AUC(0-24), A denotes a value between 100 and 200)”; the “Lung Tissue:Plasma AUC ratio” value was “C (C denotes a ratio between 100 and 200)”; the AUC(0-t) fell in the range of 500 to 1000 ng·h/mL. Moreover, the Ki in data set [3] was 0.1 to 1 nM. Besides, the Ki in data set [4] was 0.1 to 1 nM. Further, in data set [5], the Ki is 1 to 10 nM.

For the origin of these results see patent US20240092758A1, “IMIDAZOLO INDAZOLE COMPOUNDS AS JAK INHIBITORS” (Theravance Biopharma R&D IP, LLC, priority 2021, published 2024).
